Inhibition and melting point data for four molecules are collected here from patent US8653003B2, “Pyrazol-4-yl carboxamide derivatives as microbiocides” (Syngenta Participations AG, priority 2011, dated 2014).

Series [1] deals with Mycosphaerella arachidis (Cercospora arachidicola [anamorph]). As to the kind of experiment: Action against Mycosphaerella arachidis (early leaf spot of groundnut) - fungal growth assay. Format: cell-based. As to conditions: 0.002% active ingredient, PDB broth, 24° C., photometric after 6-7 days. The protocol:
Conidia of the fungus from cryogenic storage were directly mixed into nutrient broth (Pdb potato dextrose broth). After placing a (DMSO) solution of the test compounds (0.002% active ingredient) into a microtiter plate (96-well format) the nutrient broth containing the fungal spores was added. The test plates were incubated at 24° C. and the inhibition of growth was measured photometrically after 6-7 days. The activity of a compound was expressed as fungal growth inhibition (0=no growth inhibition, ratings of 80% to 99% mean good to very good inhibition, 100%=complete inhibition).

Series [2] deals with Septoria tritici. The experiment in a line: Action against Septoria tritici - fungal growth assay. The class given is cell-based. The settings on record: Zymoseptoria tritici; 0.002% active ingredient, PDB broth, 24° C., photometric after 72 hrs. The protocol:
Conidia of the fungus from cryogenic storage were directly mixed into nutrient broth (PDB potato dextrose broth). After placing a (DMSO) solution of the test compounds (0.002% active ingredient) into a microtiter plate (96-well format) the nutrient broth containing the fungal spores was added. The test plates were incubated at 24° C. and the inhibition of growth was determined photometrically after 72 hrs. The activity of a compound was expressed as fungal growth inhibition (0=no growth inhibition, ratings of 80% to 99% mean good to very good inhibition, 100%=complete inhibition).

Series [3] relates to Erysiphe graminis f. sp. tritici. As to the kind of experiment: Action against Erysiphe graminis f. sp. tritici (wheat powdery mildew), wheat leaf segments. The class given is in vivo. The settings on record: Blumeria graminis, foliar, 168 h; 0.02% active ingredient sprayed on wheat leaf segments, assessed 7 days after inoculation; read-out: preventive fungicidal activity (inhibition). The protocol:
Wheat leaf segments were placed on agar in multiwell plates (24-well format) and sprayed with test solutions (0.02% active ingredient). After drying, the leaf disks were inoculated with a spore suspension of the fungus. After appropriate incubation the activity of a compound was assessed 7 days after inoculation as preventive fungicidal activity.

For series [4], the system named is Puccinia recondita. The experiment in a line: Protective action against Puccinia recondita (brown rust) on wheat leaf segments. Format: in vivo. The settings on record: foliar, 192 h, 0.02% active ingredient sprayed on wheat leaf segments, assessed 8 days after inoculation, read-out: preventive fungicidal activity (inhibition). The protocol:
Wheat leaf segments were placed on agar in multiwell plates (24-well format) and sprayed with test solutions (0.02% active ingredient). After drying, the leaf disks were inoculated with a spore suspension of the fungus. After appropriate incubation the activity of a compound was assessed 8 days after inoculation as preventive fungicidal activity.

The test system of series [5] is Puccinia recondita. The experiment in a line: Curative action against Puccinia recondita (brown rust) on wheat leaf segments. Format: in vivo. As to conditions: foliar, 0.02% active ingredient sprayed one day after inoculation, assessed 8 days after inoculation, read-out: curative fungicidal activity (inhibition). The protocol: Wheat leaf segments were placed on agar in multiwell plates (24-well format) and inoculated with a spore suspension of the fungus. One day after inoculation the leaf segments were sprayed with test solutions (0.02% active ingredient). After appropriate incubation the activity of a compound was assessed 8 days after inoculation as curative fungicidal activity.

Series [6] deals with Pyrenophora teres. As to the kind of experiment: Action against Pyrenophora teres (net blotch) on barley leaf segments. The settings on record: foliar, 96 h, 0.02% active ingredient sprayed on barley leaf segments, assessed 4 days after inoculation, read-out: preventive fungicidal activity (inhibition). Format: in vivo. The protocol:
Barley leaf segments were placed on agar in multiwell plates (24-well format) and sprayed with test solutions (0.02% active ingredient). After drying, the leaf disks were inoculated with a spore suspension of the fungus. After appropriate incubation the activity of a compound was assessed 4 days after inoculation as preventive fungicidal activity.

For series [7], the system named is Botrytis cinerea. As to the kind of experiment: Action against Botrytis cinerea - fungal growth assay. The class given is cell-based. The settings on record: 0.002% active ingredient, PDB broth, 24° C., photometric after 3-4 days. The protocol: Conidia of the fungus from cryogenic storage was directly mixed into nutrient broth (PDB potato dextrose broth). After placing a (DMSO) solution of the test compounds (0.002% active ingredient) into a microtiter plate (96-well format) the nutrient broth containing the fungal spores was added. The test plates were incubated at 24° C. and the inhibition of growth was measured photometrically after 3-4 days. The activity of a compound was expressed as fungal growth inhibition (0=no growth inhibition, ratings of 80% to 99% mean good to very good inhibition, 100%=complete inhibition).

Take `CON(C(=O)c1cn(C)nc1C(F)F)C1CCCc2ccc(Cl)cc21` (stereo not shown) [Compound 1.003, 3-difluoromethyl-1-methyl-1H-pyrazole-4-carboxylic acid (7-chloro-1,2,3,4-tetrahydro-naphthalen-1-yl)-methoxy-amide]: the inhibition at 0.002 % strength in series [1] and in series [2] was at least 80% in each case. The inhibition at 0.02 % strength in series [3], in series [4], in series [5] and in series [6] was at least 80% each time.
Consider `CON(C(=O)c1cn(C)nc1C(F)F)C1c2ccccc2CCCC1F` (stereo not shown) [Compound 1.065, 3-difluoromethyl-1-methyl-1H-pyrazole-4-carboxylic acid (6-fluoro-6,7,8,9-tetrahydro-5-H-benzocyclohepten-5-yl)-methoxy-amide], for which the inhibition at 0.002 % strength in series [7], in series [1] and in series [2] was at least 80% each time. The inhibition at 0.02 % strength in series [3], in series [4], in series [5] and in series [6] was at least 80% in each case.
For the molecule `CON(C(=O)c1cn(C)nc1C(F)F)C1CCCCc2ccc(I)cc21` (stereo not shown) [Compound 1.062, 3-difluoromethyl-1-methyl-1H-pyrazole-4-carboxylic acid (3-iodo-6,7,8,9-tetrahydro-5-H-benzocyclohepten-5-yl)-methoxy-amide], the inhibition at 0.002 % strength in series [1] and in series [2] was at least 80% throughout. The inhibition at 0.02 % strength in series [4] and in series [5] was at least 80% each time.
Molecule `CON(C(=O)c1cn(C)nc1C(F)F)C1CCCc2ccccc21` (stereo not shown) [Compound 1.001] yielded a melting point of 91 to 95 °C. This molecule returned an inhibition at 0.002 % strength in series [7] of at least 80%. This molecule registered an inhibition at 0.002 % strength in series [1] of at least 80%. The molecule further showed an inhibition at 0.002 % strength in series [2] of at least 80%. Moreover, in series [3], the inhibition at 0.02 % strength is at least 80%. Further, in series [4], the inhibition at 0.02 % strength is at least 80%. In addition, in series [5], the inhibition at 0.02 % strength was at least 80%. In addition, the inhibition at 0.02 % strength in series [6] was at least 80%.
